From article PMC12518996 (Frontiers in Pharmacology, 2025)

Biological target: CYP2E1 (Mus musculus, UniProt Q05421)
Experiment: biochemical

CYP2E1, sequence (Q05421 whole entry): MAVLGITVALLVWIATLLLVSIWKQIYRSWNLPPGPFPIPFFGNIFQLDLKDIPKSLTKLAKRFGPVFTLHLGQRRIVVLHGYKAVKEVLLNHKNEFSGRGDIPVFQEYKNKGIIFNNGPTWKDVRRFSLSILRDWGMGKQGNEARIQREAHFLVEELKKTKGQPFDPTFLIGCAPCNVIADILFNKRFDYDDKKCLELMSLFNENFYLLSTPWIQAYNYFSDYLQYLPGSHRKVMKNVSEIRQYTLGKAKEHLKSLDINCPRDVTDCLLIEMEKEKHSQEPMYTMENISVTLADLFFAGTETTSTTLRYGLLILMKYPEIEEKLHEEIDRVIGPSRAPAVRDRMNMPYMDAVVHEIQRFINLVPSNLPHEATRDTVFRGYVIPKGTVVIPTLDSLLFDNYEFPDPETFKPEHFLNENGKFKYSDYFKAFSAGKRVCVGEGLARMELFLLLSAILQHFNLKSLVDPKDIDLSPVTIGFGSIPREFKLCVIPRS

With `Clc1cccc(N2CCNCC2)c1` [mCPP, m-chlorophenylpiperazine] the IC50 was 1880 nM.
